Laboratory results published in the supplement of paper PMC10307832.

Legend:
Test in all cases: relative viability (nuclei count vs DMSO), 5 days (fraction); higher = more cells survive
Sorafenib + OSI-027 = compound: CNC(=O)c1cc(Oc2ccc(NC(=O)Nc3ccc(Cl)c(C(F)(F)F)c3)cc2)ccn1 [Sorafenib] + COc1cccc2cc(-c3nc([C@H]4CC[C@H](C(=O)O)CC4)n4ncnc(N)c34)[nH]c12 [OSI-027] (partner 0.5 µM)
In short: (§1)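 Cells from lung cancer lines were seeded into 1536-well plates and, one day later, dosed by pin tool. Treatments were either a single drug or a fixed dose of an anchor drug with five library-drug doses (not always all listed) in √10 steps. After 5 days, nuclei were stained in a one-step fixation (final 0.05% Triton X-100, 1% formaldehyde, 1 ug/ml Hoechst) and counted on 4× images, and relative viability is the treated-to-vehicle nuclei ratio, as the median of duplicate plates.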

Sorafenib + Phenformin = compound: CNC(=O)c1cc(Oc2ccc(NC(=O)Nc3ccc(Cl)c(C(F)(F)F)c3)cc2)ccn1 [Sorafenib] + N=C(N)NC(=N)NCCc1ccccc1 [Phenformin] (partner 250 µM)
In short: as §1

Sorafenib + Palbociclib = compound: CNC(=O)c1cc(Oc2ccc(NC(=O)Nc3ccc(Cl)c(C(F)(F)F)c3)cc2)ccn1 [Sorafenib] + CC(=O)c1c(C)c2cnc(Nc3ccc(N4CCNCC4)cn3)nc2n(C2CCCC2)c1=O [Palbociclib] (partner 0.5 µM)
In short: as §1

Sorafenib + Luminespib = compound: CNC(=O)c1cc(Oc2ccc(NC(=O)Nc3ccc(Cl)c(C(F)(F)F)c3)cc2)ccn1 [Sorafenib] + CCNC(=O)c1noc(-c2cc(C(C)C)c(O)cc2O)c1-c1ccc(CN2CCOCC2)cc1 [Luminespib] (partner 0.01 µM)
In short: as §1

Sorafenib + Pictilisib = compound: CNC(=O)c1cc(Oc2ccc(NC(=O)Nc3ccc(Cl)c(C(F)(F)F)c3)cc2)ccn1 [Sorafenib] + CS(=O)(=O)N1CCN(Cc2cc3nc(-c4cccc5[nH]ncc45)nc(N4CCOCC4)c3s2)CC1 [Pictilisib] (partner 1 µM)
In short: as §1

Row | Cell Line | relative viability (Sorafenib + OSI-027; first compound 0.08 µM) | relative viability (Sorafenib + OSI-027; first compound 0.253 µM) | relative viability (Sorafenib + OSI-027; first compound 2.53 µM) | relative viability (Sorafenib + OSI-027; first compound 8 µM) | relative viability (Sorafenib + Phenformin; first compound 0.08 µM) | relative viability (Sorafenib + Phenformin; first compound 0.253 µM) | relative viability (Sorafenib + Phenformin; first compound 2.53 µM) | relative viability (Sorafenib + Palbociclib; first compound 0.08 µM) | relative viability (Sorafenib + Palbociclib; first compound 0.253 µM) | relative viability (Sorafenib + Palbociclib; first compound 2.53 µM) | relative viability (Sorafenib + Palbociclib; first compound 8 µM) | relative viability (Sorafenib + Luminespib; first compound 0.08 µM) | relative viability (Sorafenib + Luminespib; first compound 0.253 µM) | relative viability (Sorafenib + Luminespib; first compound 2.53 µM) | relative viability (Sorafenib + Pictilisib; first compound 0.08 µM) | relative viability (Sorafenib + Pictilisib; first compound 0.253 µM) | relative viability (Sorafenib + Pictilisib; first compound 2.53 µM) | relative viability (Sorafenib + Pictilisib; first compound 8 µM) | relative viability (Sorafenib + Phenformin; first compound 8 µM) | relative viability (Sorafenib + Luminespib; first compound 8 µM)
1 | H3255 | 0.634 | 0.566 | 0.619 | 0.349 | 1.02 | 0.357 | 0.406 | 0.33 | 0.3 | 0.306 | 0.287 | 1 | 0.781 | 0.925 | 0.525 | 0.434 | 0.521 | 0.305 |  | 
2 | SK-MES-1 | 0.604 | 0.548 | 0.5 | 0.454 | 0.689 | 0.62 | 0.596 | 0.301 | 0.292 | 0.292 | 0.289 | 0.752 | 0.69 | 0.791 | 0.451 | 0.439 | 0.447 | 0.377 | 0.424 | 0.412
3 | NCI-H2347 | 0.48 | 0.378 | 0.458 | 0.391 | 0.519 | 0.398 | 0.351 | 0.432 | 0.464 | 0.434 | 0.43 | 0.625 | 0.433 | 0.763 | 0.956 | 0.479 | 0.641 | 0.493 | 0.326 | 0.62
4 | A-427 | 0.522 | 0.511 | 0.432 | 0.219 | 0.444 | 0.389 | 0.333 | 0.531 | 0.553 | 0.589 | 0.474 | 0.971 | 0.951 | 0.757 | 0.771 | 0.669 | 0.768 | 0.376 | 0.115 | 0.831
5 | NCI-H1792 | 0.811 | 0.697 | 0.695 | 0.394 | 0.199 | 0.309 | 0.234 | 0.722 | 0.684 | 0.646 | 0.654 | 0.438 | 0.358 | 0.534 | 0.34 | 0.23 | 0.278 | 0.39 | 0.181 | 0.353
6 | NCI-H522 | 0.649 | 0.631 | 0.672 | 0.552 | 0.512 | 0.526 | 0.695 | 0.988 | 0.92 | 1.2 | 0.591 | 1.28 | 1.19 | 0.929 |  |  |  |  | 0.478 | 0.992
7 | NCI-H1355 | 0.459 | 0.38 | 0.512 | 0.336 | 0.497 | 0.468 | 0.452 | 0.421 | 0.41 | 0.431 | 0.39 | 0.717 | 0.687 | 0.779 | 0.444 | 0.465 | 0.45 | 0.346 | 0.387 | 0.62
8 | NCI-H838 | 0.52 | 0.438 | 0.615 | 0.539 | 0.749 |  | 0.948 | 0.25 | 0.223 | 0.286 | 0.158 | 0.346 | 0.33 | 0.402 | 0.516 | 0.412 | 0.77 | 0.38 | 0.388 | 0.243
9 | NCI-H1703 |  |  |  |  |  |  |  |  |  |  |  |  |  |  | 0.243 | 0.21 | 0.197 | 0.177 |  | 
10 | IA-LM |  |  |  |  |  |  |  |  |  |  |  |  |  |  | 0.451 | 0.37 | 0.311 | 0.212 |  | 
